Reference: patent US20090005711A1, “Systems and methods for opening of the blood-brain barrier of a subject using ultrasound” (priority 2005, published 2009)

Columns and labels:
[1] = test system: left hippocampus of the mouse brain (BBB opening)
Procedure: Brown CB57-b16 type mice (Charles River Laboratories, Wilmington, Mass., USA; mass: 23 to 28 g) were used in sonication procedures. The mice were anesthetized with a mixture of ketamine (Fort Dodge Animal Health, Fort Dodge, Iowa, USA; concentration: 75 mg per kg of body mass) and xylazine (Ben Venue Laboratories, Bedford, Ohio, USA; concentration: 3.75 mg per kg of body mass). Before sonication, the hair on the top of the mouse heads was removed using an electric trimmer and a depilatory cream. After sonication, but before MRI scanning, the mice were switched to administration of isoflurane to simplify the long anesthesia procedure necessary for MRI scanning. During all imaging procedures, the vital signs of the mice were continuously monitored.
Ultrasound gel was used further to reduce any remaining impedance mismatches between the thin plastic layer 138 and the mouse skin.
The focus of the transducer 102 was positioned inside the mouse brain using a grid positioning method, as discussed above. In this method, the sutures of the mouse skull seen through the skin were used as anatomic landmarks for targeting purposes. The location of the hippocampi were assumed relative to the sutures based on the mouse brain and known skull anatomy, as illustrated in FIG. 4. […] In CB57-b16 type mice, these were the sutures that could be clearly seen through the skin.
Ultrasound contrast medium was administered for transport across the BBB. A bolus of 10 μL (approximately 0.4 mL/kg) of ultrasound contrast agent (Optison) that contained microbubbles (mean diameter: 3.0 to 4.5 μm: concentration: 5.0 to 8.0×108 bubbles per mL) was injected into the right femoral vein of the mouse approximately 15 minutes before sonication (Table 1). Pulsed-wave FUS (burst rate: 10 Hz; burst duration: 20 ms; duty cycle: 20%; acoustic pressures at the focus: 2.0, 2.5 and 2.7 MPa) was then applied in a series of five shots lasting 30 seconds each with a 30 second delay between each shot. The FUS sonication procedure was performed once in each mouse brain. […]

[2] = test system: left hippocampus (BBB opening and closure); assay: 9.4 T MRI of gadolinium deposition after FUS with SonoVue in APP/PS1 and NTg mice (Example C); type: in vivo, mouse
From the text: In an example, transgenic mice expressing mutant human APPK670N,M671L protein (line Tg2576) and a line of mice expressing human mutant PS1M146V protein (line 8.9) were crossed to generate offspring: doubly transgenic APP/PS1 animals and wild-type NTg littermates A total of six mice (age: 12 months, mass: 26-37 g) were used: transgenic APP/PS1 (n=3) and NTg (m=3) mice.
The experimental timeline is depicted in FIG. 17. Each mouse 180 with intact skin and skull 182 was anesthetized using 1.25-2.50% isoflurane (SurgiVet, Smiths Medical PM, Inc., Wisconsin, USA) and placed prone with its head immobilized by a stereotaxic apparatus 184 (David Kopf Instruments, Tujunga, Calif.) that included a mouse head holder, ear bars, and a gas anesthesia mask (FIG. 16). […] A degassed water-filled container 186 sealed at the bottom with a thin, acoustically and optically transparent, Saran™ Wrap (Saran, SC Johnson, Racine, Wis., USA) was placed on top of the mouse head (FIG. 16). Ultrasound coupling gel 188 was also used to eliminate any remaining impedance mismatch.
FIG. 18(A) illustrates the frontal bone 200, sagittal suture 202, lambdoid suture 204, left parietal bone 206, right parietal bone 208, and intraparietal bone 210. […] The beam axis of the transducer was aligned 2.25 mm away from the sagittal suture 202 and 2 mm away from the lambdoid suture 204 (FIG. 18(A)). The focal point was placed 3 mm beneath the top of the parietal bone of the skull (dotted line in FIG. 18(A)). In this placement, the focus of the FUS beam overlapped with the left hippocampus 212 and the left posterior cerebral artery (PCA) (FIG. 18(A)-(B)). […] After the BBB opening, gadolinium was injected and monitored with MRI (FIG. 18(C). The horizontal slices shown in FIGS. 18(B)-(C) were obtained approximately 3 mm beneath the top of the skull. […]
A vertical bore 9.4-Tesla MR scanner (Bruker Medical, Boston, Mass., USA) was used to acquire images of mouse brains in two separate sessions. […] 1-2% isoflurane was administered while the respiration rate of the mouse was monitored throughout the entire MRI procedure. […]

Contrast enhancement on T1 MRI scans ([1]; in vivo, ip): no contrast enhancement was observed | Area and degree of contrast enhancement, day 2 ([2]; 0.64 MPa, 25 μl SonoVue, scans 22 hours post-sonication, second gadolinium injection, compared with day 1): significantly reduced | Residual gadolinium in pre-gadolinium T1 and T2-weighted images ([2]; before the day 2 scan (22 hours post-sonication)): no residual gadolinium
SMILES: [Gd] [gadolinium]
Contrast enhancement / permeation on T1 MRI scans [1]: eventually encompassing the entire left hippocampus | Contrast enhancement / BBB opening on T1 MRI scans ([1]; in vivo, ip): highly localized opening of the BBB near the PCA | Contrast enhancement on MR images, day 1 ([2]; 0.64 MPa, 25 μl SonoVue, scans 90 min post-sonication, 90 min post-gadolinium injection (0.75 ml IP)): the entire left hippocampus and some of its surrounding regions were contrast-enhanced
